One data set deals with T1, α 1B (Homo sapiens, UniProt P35368).
T1 sequence (P35368 1-520): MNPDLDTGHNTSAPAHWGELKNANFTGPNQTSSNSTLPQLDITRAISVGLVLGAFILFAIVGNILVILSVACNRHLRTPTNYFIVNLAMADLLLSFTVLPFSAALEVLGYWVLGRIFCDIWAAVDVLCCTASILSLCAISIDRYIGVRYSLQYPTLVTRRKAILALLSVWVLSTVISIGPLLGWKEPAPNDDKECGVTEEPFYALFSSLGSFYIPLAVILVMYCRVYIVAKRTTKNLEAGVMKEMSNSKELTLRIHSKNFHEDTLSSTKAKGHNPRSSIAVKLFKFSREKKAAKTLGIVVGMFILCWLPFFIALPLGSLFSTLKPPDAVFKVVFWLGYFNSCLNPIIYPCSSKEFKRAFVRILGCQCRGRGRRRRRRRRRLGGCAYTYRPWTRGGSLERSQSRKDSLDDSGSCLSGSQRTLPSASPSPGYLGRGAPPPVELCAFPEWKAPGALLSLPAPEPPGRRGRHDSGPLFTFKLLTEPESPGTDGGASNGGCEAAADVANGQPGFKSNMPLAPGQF
In words: NIMH PDSP radioligand binding displacement, α 1B. Conditions: read-out: % inhibition (10 μM).

In the next data set the target is human h5-HT2AR (Homo sapiens, UniProt P28223). As to the kind of experiment: 5-HT-induced Cai2+ release assay in h5-HT2AR-CHO cells. The format is cell-based.
The next data set has as its target CYP2C19 (Homo sapiens, UniProt P33261). As to the kind of experiment: CYP2C19 inhibition. Conditions: 10 μM.
The next data set addresses T2, CYP1A2 (Homo sapiens, UniProt P05177).
T2 sequence (P05177 1-516): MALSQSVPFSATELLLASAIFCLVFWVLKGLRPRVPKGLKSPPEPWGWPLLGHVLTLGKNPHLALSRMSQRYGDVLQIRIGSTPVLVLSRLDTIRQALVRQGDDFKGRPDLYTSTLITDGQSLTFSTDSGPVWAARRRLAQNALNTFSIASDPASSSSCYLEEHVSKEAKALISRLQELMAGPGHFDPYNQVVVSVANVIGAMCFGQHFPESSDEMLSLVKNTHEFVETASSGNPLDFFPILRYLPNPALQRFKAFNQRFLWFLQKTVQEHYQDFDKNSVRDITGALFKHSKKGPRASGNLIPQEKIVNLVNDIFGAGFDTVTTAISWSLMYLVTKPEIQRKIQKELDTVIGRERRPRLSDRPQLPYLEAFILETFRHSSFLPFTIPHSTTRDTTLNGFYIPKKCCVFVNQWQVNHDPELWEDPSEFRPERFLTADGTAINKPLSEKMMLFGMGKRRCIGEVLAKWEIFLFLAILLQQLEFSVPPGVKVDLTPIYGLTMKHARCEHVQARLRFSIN
In words: CYP1A2 inhibition. Conditions: 10 μM.

Data set [1] deals with T3, human 5-HT2CR (unedited INI isoform) (Homo sapiens, UniProt P28335).
T3 sequence (P28335 33-458): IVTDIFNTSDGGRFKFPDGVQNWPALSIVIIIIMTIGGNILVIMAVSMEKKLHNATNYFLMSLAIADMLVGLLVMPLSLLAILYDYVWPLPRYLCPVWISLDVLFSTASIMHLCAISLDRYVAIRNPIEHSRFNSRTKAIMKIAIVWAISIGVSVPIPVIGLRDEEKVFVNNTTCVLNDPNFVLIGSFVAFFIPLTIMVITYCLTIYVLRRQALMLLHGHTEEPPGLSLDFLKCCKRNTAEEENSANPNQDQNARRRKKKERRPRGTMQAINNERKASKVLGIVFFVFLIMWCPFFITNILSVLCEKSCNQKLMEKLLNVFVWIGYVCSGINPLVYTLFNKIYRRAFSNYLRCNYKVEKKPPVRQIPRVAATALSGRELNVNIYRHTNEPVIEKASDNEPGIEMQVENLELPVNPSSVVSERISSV
Conditions: h5-HT2CR-CHO cells.

The next data set deals with CYP2D6 (Homo sapiens, UniProt P10635). As to the kind of experiment: CYP2D6 inhibition. Conditions: 10 μM.
The target in the next data set is CYP2C9 (Homo sapiens, UniProt P11712). As to the kind of experiment: CYP2C9 inhibition. Conditions: 10 μM.
A further data set concerns male Sprague–Dawley rats. In words: WAY163909 versus saline two-lever drug discrimination assay. In kind it is in vivo, rat. Conditions: 12 alone 0.5–5 mg/kg ip.
A further data set is described as follows: kinetic solubility. Conditions: 2 h.
In a further data set the target is CYP3A4 (Homo sapiens, UniProt P08684). In words: CYP3A4 inhibition. Conditions: 10 μM.
Data set [2] can be described thus: rat liver microsomal clearance. Conditions: microsomes. (In general: Liver microsomes are a subcellular fraction often used to study metabolism.)

“Also recorded” adds a separate entry of the source.

Data on one molecule can be found in article PMC8434884 (Journal of medicinal chemistry, 2020).

human h5-HT2AR, sequence (P28223 whole entry): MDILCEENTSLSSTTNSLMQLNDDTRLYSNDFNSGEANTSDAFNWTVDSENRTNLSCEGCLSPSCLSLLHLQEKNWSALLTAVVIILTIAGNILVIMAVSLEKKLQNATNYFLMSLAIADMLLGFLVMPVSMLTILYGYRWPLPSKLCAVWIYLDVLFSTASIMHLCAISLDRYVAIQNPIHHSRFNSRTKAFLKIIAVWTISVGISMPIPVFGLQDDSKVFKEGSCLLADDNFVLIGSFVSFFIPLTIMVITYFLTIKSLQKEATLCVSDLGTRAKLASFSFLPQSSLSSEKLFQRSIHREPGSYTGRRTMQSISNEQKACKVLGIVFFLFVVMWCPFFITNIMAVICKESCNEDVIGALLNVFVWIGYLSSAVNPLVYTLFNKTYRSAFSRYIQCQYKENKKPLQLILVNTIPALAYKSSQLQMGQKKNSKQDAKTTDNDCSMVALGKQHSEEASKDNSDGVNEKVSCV
CYP3A4, sequence (P08684 whole entry): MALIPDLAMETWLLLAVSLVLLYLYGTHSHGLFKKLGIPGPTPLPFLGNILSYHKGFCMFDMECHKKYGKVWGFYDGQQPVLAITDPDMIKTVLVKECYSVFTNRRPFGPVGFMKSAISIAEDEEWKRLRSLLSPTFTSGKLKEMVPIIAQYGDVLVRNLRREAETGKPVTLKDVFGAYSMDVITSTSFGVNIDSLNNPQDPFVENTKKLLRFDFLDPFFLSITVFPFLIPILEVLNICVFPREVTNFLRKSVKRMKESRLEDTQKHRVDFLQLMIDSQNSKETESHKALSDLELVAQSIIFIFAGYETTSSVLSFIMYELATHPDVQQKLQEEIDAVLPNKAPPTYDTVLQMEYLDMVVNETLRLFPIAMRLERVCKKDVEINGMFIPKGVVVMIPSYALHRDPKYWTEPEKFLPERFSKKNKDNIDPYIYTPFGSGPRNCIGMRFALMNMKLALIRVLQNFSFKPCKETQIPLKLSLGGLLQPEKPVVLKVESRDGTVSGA
CYP2D6, sequence (P10635 whole entry): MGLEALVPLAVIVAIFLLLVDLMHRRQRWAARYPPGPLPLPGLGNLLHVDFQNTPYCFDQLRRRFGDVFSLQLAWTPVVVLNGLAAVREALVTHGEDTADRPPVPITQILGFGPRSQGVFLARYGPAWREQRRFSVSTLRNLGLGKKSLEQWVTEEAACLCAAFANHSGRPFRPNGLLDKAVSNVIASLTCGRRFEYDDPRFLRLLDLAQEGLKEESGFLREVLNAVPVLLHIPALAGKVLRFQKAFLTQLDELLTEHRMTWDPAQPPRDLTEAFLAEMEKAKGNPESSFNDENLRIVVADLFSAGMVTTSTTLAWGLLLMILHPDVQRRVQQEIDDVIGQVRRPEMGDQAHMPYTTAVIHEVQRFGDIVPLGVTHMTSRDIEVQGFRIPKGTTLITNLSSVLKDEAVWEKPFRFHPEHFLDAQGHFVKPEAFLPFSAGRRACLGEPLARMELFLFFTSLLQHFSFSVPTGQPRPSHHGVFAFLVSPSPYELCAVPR
CYP2C9, sequence (P11712 whole entry): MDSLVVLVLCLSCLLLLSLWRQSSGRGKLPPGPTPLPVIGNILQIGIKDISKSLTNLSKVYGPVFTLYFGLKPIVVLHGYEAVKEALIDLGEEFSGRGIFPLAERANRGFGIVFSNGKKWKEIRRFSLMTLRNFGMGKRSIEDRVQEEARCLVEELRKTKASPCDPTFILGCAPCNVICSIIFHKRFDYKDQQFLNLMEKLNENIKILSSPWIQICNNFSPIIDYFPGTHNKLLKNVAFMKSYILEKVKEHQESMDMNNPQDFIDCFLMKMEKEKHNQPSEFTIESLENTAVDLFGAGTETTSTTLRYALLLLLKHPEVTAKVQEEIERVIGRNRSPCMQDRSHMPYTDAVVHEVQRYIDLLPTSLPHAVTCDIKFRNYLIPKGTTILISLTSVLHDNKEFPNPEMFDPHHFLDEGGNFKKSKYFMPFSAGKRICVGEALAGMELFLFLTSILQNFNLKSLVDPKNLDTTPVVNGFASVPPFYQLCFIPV
CYP2C19, sequence (P33261 whole entry): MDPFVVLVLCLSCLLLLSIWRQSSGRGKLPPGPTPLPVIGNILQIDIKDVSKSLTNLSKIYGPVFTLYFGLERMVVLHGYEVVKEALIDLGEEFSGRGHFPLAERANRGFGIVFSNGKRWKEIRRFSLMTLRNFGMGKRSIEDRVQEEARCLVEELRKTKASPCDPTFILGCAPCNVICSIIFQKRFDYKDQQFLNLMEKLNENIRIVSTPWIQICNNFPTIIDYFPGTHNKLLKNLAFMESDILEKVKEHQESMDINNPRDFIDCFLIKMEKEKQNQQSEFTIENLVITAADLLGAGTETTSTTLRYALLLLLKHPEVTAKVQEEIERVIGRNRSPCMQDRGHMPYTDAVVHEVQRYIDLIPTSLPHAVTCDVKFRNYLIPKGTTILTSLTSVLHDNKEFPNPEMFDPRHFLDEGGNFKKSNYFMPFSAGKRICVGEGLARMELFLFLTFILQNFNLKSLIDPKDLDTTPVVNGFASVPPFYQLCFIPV

`O=C(NC[C@H](O)CO)[C@@H]1C[C@H](c2ccccc2)CCN1` (mixture of isomers) [Compound 12, (2,4-cis)-N-((S)-2,3-Dihydroxypropyl)-4-phenylpiperidine-2-carboxamide]: the inhibition at 10 µM on α 1B is -11%. For the same molecule, the “alteration of Emax or EC50 of 5-HT-induced Cai2+ release (in words)” value at human h5-HT2AR was “no alteration in the Emax or EC50; also recorded: inactive as an agonist or allosteric modulator”. Also, the CYP2C19 inhibition on CYP2C19 is 0.0% (10 μM). Further, on CYP1A2, the CYP1A2 inhibition is recorded as 11.8% (10 μM). The “5-HT2CR positive allosteric modulator activity (in words)” value in data set [1] (1 nM, 5-HT-induced Cai2+ release) is recorded as “significant PAM activity”. In data set [1] (compound added 15 min before 5-HT), the “intrinsic agonist activity to induce Cai2+ release prior to addition of 5-HT” value is reported as “did not exhibit intrinsic activity”. Also, the CYP2D6 inhibition at CYP2D6 is on record as 1.9% (10 μM). Also, the CYP2C9 inhibition at CYP2C9 is given as 0.0% (10 μM). In the data set with male Sprague–Dawley rats, the “response rates (in words)” value is “no change in response rates”. Moreover, the “substitution for WAY163909 (lever responding, in words)” value in the data set with male Sprague–Dawley rats (30 min prior to testing) is given as “evoked saline lever responding”. Further, in “kinetic solubility”, the “kinetic solubility (PBS; pH 7.4)” value is listed as “highly soluble”. Moreover, the CYP3A4 inhibition at CYP3A4 is reported as 0.0% (10 μM). For the same molecule, in data set [2], the microsomal CLint at 10 μM was less than 9.6 µL/min/mg.

One may read the inhibition as the change of the read-out against control, counted positive when it falls. One may read the microsomal CLint as the capacity of the preparation to metabolise the compound, expressed as a volume cleared per time. Read a high microsomal CLint as rapid turnover.
